Results from patent US20220389061A1, “IMMUNOMODULATORS” (priority 2019, published 2022).
Starred links: 1 amine or outer side, 2 acyl side, 3 side chain; linkers in the order of their positions; H or OH if unused. Positions of bridges follow the written chain, without caps; N, C: chain ends. Non-standard residues stand in square brackets, D forms with d. Residues, ends and D or L forms follow the SMILES beside them. Groups on a side chain read outwards from the residue. *: point of attachment. Trp(1-CH2CO2Me) = COC(=O)Cn1cc(C[C@H](N)C(=O)O)c2ccccc21; Trp(1-CH2COOH) = N[C@@H](Cc1cn(CC(=O)O)c2ccccc12)C(=O)O; Acridine9carbonyl = O=C(c1c2ccccc2nc2ccccc12)*; X18 = O=[N+]([O-])c1ccc(NC(=S)*)c(Cl)c1; NH(2-CF3-phenyl) = FC(F)(F)c1ccccc1N*; Hyp = O=C(O)[C@@H]1C[C@@H](O)CN1; X34 = O=C(c1c2ccccc2cc2ccccc12)*; X27 = Cc1cc([N+](=O)[O-])ccc1N*; X78 = S=C(Nc1c(Cl)cc(Cl)cc1Cl)*; pNA = O=[N+]([O-])c1ccc(N*)cc1; NH(3-MeOPh) = COc1cccc(N*)c1; NMeNle = CCCC[C@H](NC)C(=O)O; X86 = CCOc1ccc(NC(=S)*)cc1; X93 = c1cc2c(c(N*)c1)CCCC2; X74 = Cc1cc(C)c(N*)c(C)c1; NMeA = CN[C@@H](C)C(=O)O; Dab = NCC[C@H](N)C(=O)O; Dap = NC[C@H](N)C(=O)O; X17 = Cc1cc(C)cc(N*)c1; X37 = Fc1cc(F)cc(N*)c1; X46 = COc1ccc(Cl)cc1N*; CO = O=C([*:1])[*:2]

Molecular target: T1, PD-1/PD-L1 (Homo sapiens, UniProt Q9NZQ7)
T1 construct: TVMV protease site linker (C); made in house; host or cells: HEK293T cells
Test: PD-1/PD-L1 Homogenous Time-Resolved Fluorescence (HTRF) binding assay
Conditions: not given
Outline: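 HTRF read-out using europium cryptate anti-Ig (1 nM) and APC anti-His (20 nM) on extracellular-domain fusion proteins in dPBS/0.1% BSA/0.05% Tween-20. Inhibitor first incubated 15 min with 10 nM PD-L1-His, followed by 20 nM PD-1-Ig for another 15 min.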

T1 sequence (Q9NZQ7 18-239): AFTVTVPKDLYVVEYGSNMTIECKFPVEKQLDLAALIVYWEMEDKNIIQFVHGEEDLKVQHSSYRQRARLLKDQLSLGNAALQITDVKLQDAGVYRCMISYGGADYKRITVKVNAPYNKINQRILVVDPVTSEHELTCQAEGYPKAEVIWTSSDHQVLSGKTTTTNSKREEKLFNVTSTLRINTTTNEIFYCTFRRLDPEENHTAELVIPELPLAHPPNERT

| SMILES | IC50 |
| --- | --- |
| CCCC[C@H]1C(=O)N(C)[C@@H](CCCC)C(=O)N[C@@H](CC(C)C)C(=O)N[C@H](C(=O)NCC(N)=O)CSCC(=O)N[C@@H](Cc2ccc(O)cc2)C(=O)N(C)[C@@H](C)C(=O)N[C@@H](CC(N)=O)C(=O)N2CCC[C@H]2C(=O)N[C@@H](CNC(=S)Nc2ccc([N+](=O)[O-])cc2Cl)C(=O)N[C@@H](CC(C)C)C(=O)N2C[C@H](O)C[C@H]2C(=O)N[C@@H](Cc2c[nH]c3ccccc23)C(=O)N[C@@H](CCNC(=S)Nc2ccc([N+](=O)[O-])cc2Cl)C(=O)N[C@@H](Cc2cn(CC(=O)O)c3ccccc23)C(=O)N1C [Example 1103] ({CH2CO}-Y[NMeA]NP[Dap](X18)L[Hyp]W[Dab](X18)[Trp(1-CH2COOH)][NMeNle][NMeNle]LCG-NH2; thioether N-14) | 6.5 nM |
| CCCC[C@H]1C(=O)N(C)[C@@H](CCCC)C(=O)N[C@@H](CC(C)C)C(=O)N[C@H](C(=O)NCC(N)=O)CSCC(=O)N[C@@H](Cc2ccc(O)cc2)C(=O)N(C)[C@@H](C)C(=O)N[C@@H](CC(N)=O)C(=O)N2CCC[C@H]2C(=O)N[C@@H](CNC(=O)Nc2ccc([N+](=O)[O-])cc2)C(=O)N[C@@H](CC(C)C)C(=O)N2C[C@H](O)C[C@H]2C(=O)N[C@@H](Cc2c[nH]c3ccccc23)C(=O)N[C@@H](CCN)C(=O)N[C@@H](Cc2cn(CC(=O)O)c3ccccc23)C(=O)N1C [Example 1132] ({CH2CO}-Y[NMeA]NP[Dap]([CO-pNA])L[Hyp]W[Dab][Trp(1-CH2COOH)][NMeNle][NMeNle]LCG-NH2; thioether N-14) | 3.7 nM |
| CCCC[C@H]1C(=O)N(C)[C@@H](CCCC)C(=O)N[C@@H](CC(C)C)C(=O)N[C@H](C(=O)NCC(N)=O)CSCC(=O)N[C@@H](Cc2ccc(O)cc2)C(=O)N(C)[C@@H](C)C(=O)N[C@@H](CC(N)=O)C(=O)N2CCC[C@H]2C(=O)N[C@@H](CNC(=O)Nc2cccc3c2CCCC3)C(=O)N[C@@H](CC(C)C)C(=O)N2C[C@H](O)C[C@H]2C(=O)N[C@@H](Cc2c[nH]c3ccccc23)C(=O)N[C@@H](CCNC(=O)Nc2cccc3c2CCCC3)C(=O)N[C@@H](Cc2cn(CC(=O)O)c3ccccc23)C(=O)N1C [Example 3015] ({CH2CO}-Y[NMeA]NP[Dap]([CO-X93])L[Hyp]W[Dab]([CO-X93])[Trp(1-CH2COOH)][NMeNle][NMeNle]LCG-NH2; thioether N-14) | 0.7 nM |

Same assay, conditions: PD-L1-His 10 nM pre-incubated with inhibitor, PD-1-Ig 20 nM; read-out: HTRF IC50

| SMILES | IC50 |
| --- | --- |
| CCCC[C@H]1C(=O)N(C)[C@@H](CCCC)C(=O)N[C@@H](CC(C)C)C(=O)N[C@H](C(=O)NCC(N)=O)CSCC(=O)N[C@@H](Cc2ccc(O)cc2)C(=O)N(C)[C@@H](C)C(=O)N[C@@H](CC(N)=O)C(=O)N2CCC[C@H]2C(=O)N[C@@H](CNC(=O)Nc2ccc([N+](=O)[O-])cc2C)C(=O)N[C@@H](CC(C)C)C(=O)N2C[C@H](O)C[C@H]2C(=O)N[C@@H](Cc2c[nH]c3ccccc23)C(=O)N[C@@H](CCN)C(=O)N[C@@H](Cc2cn(CC(=O)O)c3ccccc23)C(=O)N1C [Example 1133] ({CH2CO}-Y[NMeA]NP[Dap]([CO-X27])L[Hyp]W[Dab][Trp(1-CH2COOH)][NMeNle][NMeNle]LCG-NH2; thioether N-14) | 8.4 nM |
| CCCC[C@H]1C(=O)N(C)[C@@H](CCCC)C(=O)N[C@@H](CC(C)C)C(=O)N[C@H](C(=O)NCC(N)=O)CSCC(=O)N[C@@H](Cc2ccc(O)cc2)C(=O)N(C)[C@@H](C)C(=O)N[C@@H](CC(N)=O)C(=O)N2CCC[C@H]2C(=O)N[C@@H](CNC(=O)c2c3ccccc3cc3ccccc23)C(=O)N[C@@H](CC(C)C)C(=O)N2C[C@H](O)C[C@H]2C(=O)N[C@@H](Cc2c[nH]c3ccccc23)C(=O)N[C@@H](CCNC(=O)c2c3ccccc3cc3ccccc23)C(=O)N[C@@H](Cc2cn(CC(=O)O)c3ccccc23)C(=O)N1C [Example 2011] ({CH2CO}-Y[NMeA]NP[Dap](X34)L[Hyp]W[Dab](X34)[Trp(1-CH2COOH)][NMeNle][NMeNle]LCG-NH2; thioether N-14) | 4.7 nM |
| CCCC[C@H]1C(=O)N(C)[C@@H](CCCC)C(=O)N[C@@H](CC(C)C)C(=O)N[C@H](C(=O)NCC(N)=O)CSCC(=O)N[C@@H](Cc2ccc(O)cc2)C(=O)N(C)[C@@H](C)C(=O)N[C@@H](CC(N)=O)C(=O)N2CCC[C@H]2C(=O)N[C@@H](CNC(=O)Nc2cc(Cl)ccc2OC)C(=O)N[C@@H](CC(C)C)C(=O)N2C[C@H](O)C[C@H]2C(=O)N[C@@H](Cc2c[nH]c3ccccc23)C(=O)N[C@@H](CCN)C(=O)N[C@@H](Cc2cn(CC(=O)O)c3ccccc23)C(=O)N1C [Example 1074] ({CH2CO}-Y[NMeA]NP[Dap]([CO-X46])L[Hyp]W[Dab][Trp(1-CH2COOH)][NMeNle][NMeNle]LCG-NH2; thioether N-14) | 6.3 nM |
| CCCC[C@H]1C(=O)N(C)[C@@H](CCCC)C(=O)N[C@@H](CC(C)C)C(=O)N[C@H](C(=O)NCC(N)=O)CSCC(=O)N[C@@H](Cc2ccc(O)cc2)C(=O)N(C)[C@@H](C)C(=O)N[C@@H](CC(N)=O)C(=O)N2CCC[C@H]2C(=O)N[C@@H](CNC(=O)c2c3ccccc3nc3ccccc23)C(=O)N[C@@H](CC(C)C)C(=O)N2C[C@H](O)C[C@H]2C(=O)N[C@@H](Cc2c[nH]c3ccccc23)C(=O)N[C@@H](CCNC(=O)c2c3ccccc3nc3ccccc23)C(=O)N[C@@H](Cc2cn(CC(=O)OC)c3ccccc23)C(=O)N1C [Example 2003] ({CH2CO}-Y[NMeA]NP[Dap](Acridine9carbonyl)L[Hyp]W[Dab](Acridine9carbonyl)[Trp(1-CH2CO2Me)][NMeNle][NMeNle]LCG-NH2; thioether N-14) | 22.6 nM |
| CCCC[C@H]1C(=O)N(C)[C@@H](CCCC)C(=O)N[C@@H](CC(C)C)C(=O)N[C@H](C(=O)NCC(N)=O)CSCC(=O)N[C@@H](Cc2ccc(O)cc2)C(=O)N(C)[C@@H](C)C(=O)N[C@@H](CC(N)=O)C(=O)N2CCC[C@H]2C(=O)N[C@@H](CNC(=S)Nc2ccc(OCC)cc2)C(=O)N[C@@H](CC(C)C)C(=O)N2C[C@H](O)C[C@H]2C(=O)N[C@@H](Cc2c[nH]c3ccccc23)C(=O)N[C@@H](CCNC(=S)Nc2ccc(OCC)cc2)C(=O)N[C@@H](Cc2cn(CC(=O)O)c3ccccc23)C(=O)N1C [Example 1027] ({CH2CO}-Y[NMeA]NP[Dap](X86)L[Hyp]W[Dab](X86)[Trp(1-CH2COOH)][NMeNle][NMeNle]LCG-NH2; thioether N-14) | 3.7 nM |
| CCCC[C@H]1C(=O)N(C)[C@@H](CCCC)C(=O)N[C@@H](CC(C)C)C(=O)N[C@H](C(=O)NCC(N)=O)CSCC(=O)N[C@@H](Cc2ccc(O)cc2)C(=O)N(C)[C@@H](C)C(=O)N[C@@H](CC(N)=O)C(=O)N2CCC[C@H]2C(=O)N[C@@H](CNC(=O)Nc2c(C)cc(C)cc2C)C(=O)N[C@@H](CC(C)C)C(=O)N2C[C@H](O)C[C@H]2C(=O)N[C@@H](Cc2c[nH]c3ccccc23)C(=O)N[C@@H](CCNC(=O)Nc2c(C)cc(C)cc2C)C(=O)N[C@@H](Cc2cn(CC(=O)O)c3ccccc23)C(=O)N1C [Example 1081] ({CH2CO}-Y[NMeA]NP[Dap]([CO-X74])L[Hyp]W[Dab]([CO-X74])[Trp(1-CH2COOH)][NMeNle][NMeNle]LCG-NH2; thioether N-14) | 2.7 nM |

The remaining lines, values ahead:

| IC50 | SMILES |
| --- | --- |
| 2.5 nM | CCCC[C@H]1C(=O)N(C)[C@@H](CCCC)C(=O)N[C@@H](CC(C)C)C(=O)N[C@H](C(=O)NCC(N)=O)CSCC(=O)N[C@@H](Cc2ccc(O)cc2)C(=O)N(C)[C@@H](C)C(=O)N[C@@H](CC(N)=O)C(=O)N2CCC[C@H]2C(=O)N[C@@H](CNC(=O)Nc2cc(F)cc(F)c2)C(=O)N[C@@H](CC(C)C)C(=O)N2C[C@H](O)C[C@H]2C(=O)N[C@@H](Cc2c[nH]c3ccccc23)C(=O)N[C@@H](CCN)C(=O)N[C@@H](Cc2cn(CC(=O)O)c3ccccc23)C(=O)N1C [Example 1079] ({CH2CO}-Y[NMeA]NP[Dap]([CO-X37])L[Hyp]W[Dab][Trp(1-CH2COOH)][NMeNle][NMeNle]LCG-NH2; thioether N-14) |
| 5.7 nM | CCCC[C@H]1C(=O)N(C)[C@@H](CCCC)C(=O)N[C@@H](CC(C)C)C(=O)N[C@H](C(=O)NCC(N)=O)CSCC(=O)N[C@@H](Cc2ccc(O)cc2)C(=O)N(C)[C@@H](C)C(=O)N[C@@H](CC(N)=O)C(=O)N2CCC[C@H]2C(=O)N[C@@H](CNC(=S)Nc2c(Cl)cc(Cl)cc2Cl)C(=O)N[C@@H](CC(C)C)C(=O)N2C[C@H](O)C[C@H]2C(=O)N[C@@H](Cc2c[nH]c3ccccc23)C(=O)N[C@@H](CCNC(=S)Nc2c(Cl)cc(Cl)cc2Cl)C(=O)N[C@@H](Cc2cn(CC(=O)O)c3ccccc23)C(=O)N1C [Example 1077] ({CH2CO}-Y[NMeA]NP[Dap](X78)L[Hyp]W[Dab](X78)[Trp(1-CH2COOH)][NMeNle][NMeNle]LCG-NH2; thioether N-14) |
| 20 nM | CCCC[C@H]1C(=O)N(C)[C@@H](CCCC)C(=O)N[C@@H](CC(C)C)C(=O)N[C@H](C(=O)NCC(N)=O)CSCC(=O)N[C@@H](Cc2ccc(O)cc2)C(=O)N(C)[C@@H](C)C(=O)N[C@@H](CC(N)=O)C(=O)N2CCC[C@H]2C(=O)N[C@@H](CNC(=O)Nc2ccccc2C(F)(F)F)C(=O)N[C@@H](CC(C)C)C(=O)N2C[C@H](O)C[C@H]2C(=O)N[C@@H](Cc2c[nH]c3ccccc23)C(=O)N[C@@H](CCNC(=O)Nc2ccccc2C(F)(F)F)C(=O)N[C@@H](Cc2cn(CC(=O)O)c3ccccc23)C(=O)N1C [Example 1137] ({CH2CO}-Y[NMeA]NP[Dap]([CO-NH(2-CF3-phenyl)])L[Hyp]W[Dab]([CO-NH(2-CF3-phenyl)])[Trp(1-CH2COOH)][NMeNle][NMeNle]LCG-NH2; thioether N-14) |
| 14 nM | CCCC[C@H]1C(=O)N(C)[C@@H](CCCC)C(=O)N[C@@H](CC(C)C)C(=O)N[C@H](C(=O)NCC(N)=O)CSCC(=O)N[C@@H](Cc2ccc(O)cc2)C(=O)N(C)[C@@H](C)C(=O)N[C@@H](CC(N)=O)C(=O)N2CCC[C@H]2C(=O)N[C@@H](CNC(=O)Nc2cc(C)cc(C)c2)C(=O)N[C@@H](CC(C)C)C(=O)N2C[C@H](O)C[C@H]2C(=O)N[C@@H](Cc2c[nH]c3ccccc23)C(=O)N[C@@H](CCNC(=O)Nc2cccc(OC)c2)C(=O)N[C@@H](Cc2cn(CC(=O)O)c3ccccc23)C(=O)N1C [Example 1121] ({CH2CO}-Y[NMeA]NP[Dap]([CO-X17])L[Hyp]W[Dab]([CO-NH(3-MeOPh)])[Trp(1-CH2COOH)][NMeNle][NMeNle]LCG-NH2; thioether N-14) |
